Experimental data taken from US20230295234A1, “ANTIMICROBIAL PEPTIDOMIMETICS” (SPEXIS AG, priority 2020, published 2023).
Bridge positions count the residues as written; N and C are the ends. Square brackets hold non-standard residues; d marks the D form. Peptide text beside a SMILES is read from it. Pro(4R-NH2) = N[C@H]1CN[C@H](C(=O)O)C1; Gly(N-2-aminoethyl) = NCCNCC(=O)O; Pen = CC(C)(S)[C@H](N)C(=O)O; dDab = NCC[C@@H](N)C(=O)O; Dab = NCC[C@H](N)C(=O)O

Legend:
[1] = tested on: Escherichia coli MCR-1 Af 45; conditions: MCR-1 Af 45
In short: (§1)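 Standardized inocula (0.5 McFarland in saline, then diluted in MHII broth to approximately 5×10^5 CFU/mL) were exposed to two-fold dilution series of each peptide in the presence of polysorbate 80 (0.002% final).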

[2] = tested on: Escherichia coli ATCC 25922; conditions: ATCC 25922
In short: as §1

[3] = tested on: Klebsiella pneumoniae SSI3010; conditions: SSI3010
In short: as §1

[4] = tested on: human red blood cells (hRBC); experiment: Hemolysis of human red blood cells; type: cell-based; conditions: red cells of human, 1 h
In short: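 Percent hemolysis is OD540 of peptide-treated supernatant relative to water-lysed cells. Each peptide was tested at 200 μg/mL against 20% (v/v) washed human erythrocytes. Incubation was 1 h at 37 °C, 300 rpm.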

Escherichia coli MCR-1 Af 45 MIC [1] [mg/L]	Escherichia coli ATCC 25922 MIC [2] [mg/L]	Klebsiella pneumoniae SSI3010 MIC [3] [mg/L]	Structure (SMILES)	Hemolysis at 0.2 g/L [4] [%]
0.125	0.25	0.25	CC[C@H](C)[C@H](NC(=O)[C@@H](NC(=O)[C@@H]1C[C@@H](N)CN1C(=O)[C@@H](NC(=O)[C@@H]1C[C@@H](N)CN1)C(C)C)[C@@H](C)CC)C(=O)N[C@@H](Cc1ccc(O)cc1)C(=O)N[C@@H]1C(=O)N[C@@H](CC(N)=O)C(=O)N[C@@H](CCCNC(=N)N)C(=O)N[C@@H](CCN)C(=O)N[C@@H]([C@@H](C)O)C(=O)N[C@H](CCN)C(=O)N[C@@H](CCCCN)C(=O)N[C@H](C(=O)N[C@@H](CCN)C(=O)N[C@@H](CCCNC(=N)N)C(=O)N[C@@H](Cc2ccc(O)cc2)C(=O)O)CSSC1(C)C [Example 26, Pro((4R)NH2)-Val-Pro((4R)NH2)-Ile-Ile-Tyr-Pen-Asn-Arg-Dab-Thr-^DDab-Lys-Cys-Dab-Arg-Tyr] (H-[Pro(4R-NH2)]V[Pro(4R-NH2)]IIY[Pen]NR[Dab]T[dDab]KC[Dab]RY-OH; disulfide 7-14)	0
0.0625	0.0625	0.125	CC[C@H](C)[C@H](NC(=O)[C@@H](NC(=O)[C@@H]1CCCN1C(=O)[C@@H](NC(=O)CNCCN)C(C)C)[C@@H](C)CC)C(=O)N[C@@H](Cc1ccc(O)cc1)C(=O)N[C@@H]1C(=O)N[C@@H](CC(N)=O)C(=O)N[C@@H](CCCNC(=N)N)C(=O)N[C@@H](CCN)C(=O)N[C@@H]([C@@H](C)O)C(=O)N[C@H](CCN)C(=O)N[C@@H](CCCCN)C(=O)N[C@H](C(=O)N[C@@H](CCN)C(=O)N[C@@H](CCCNC(=N)N)C(=O)N[C@@H](Cc2ccc(O)cc2)C(=O)O)CSSC1(C)C [Example 27, Ndab-Val-Pro-Ile-Ile-Tyr-Pen-Asn-Arg-Dab-Thr-^DDab-Lys-Cys-Dab-Arg-Tyr] (HELM PEPTIDE1{[NCCNCC(=O)[*:2]].V.P.I.I.Y.[Pen].N.R.[Dab].T.[NCC[C@@H](N[*:1])C(=O)[*:2]].K.C.[Dab].R.Y}$PEPTIDE1,PEPTIDE1,7:R3-14:R3$$$V2.0)	0
0.125	0.25	0.125	CC[C@H](C)[C@H](NC(=O)CN(CCN)C(=O)[C@@H](NC(=O)[C@@H]1CCCN1)C(C)C)C(=O)N[C@H](C(=O)N[C@@H](Cc1ccc(O)cc1)C(=O)N[C@@H]1C(=O)N[C@@H](CC(N)=O)C(=O)N[C@@H](CCCNC(=N)N)C(=O)N[C@@H](CCN)C(=O)N[C@@H]([C@@H](C)O)C(=O)N[C@H](CCN)C(=O)N[C@@H](CCCCN)C(=O)N[C@H](C(=O)N[C@@H](CCN)C(=O)N[C@@H](CCCNC(=N)N)C(=O)N[C@@H](Cc2ccc(O)cc2)C(=O)O)CSSC1(C)C)[C@@H](C)CC [Example 28, Pro-Val-Ndab-Ile-Ile-Tyr-Pen-Asn-Arg-Dab-Thr-^DDab-Lys-Cys-Dab-Arg-Tyr] (HELM PEPTIDE1{P.V.[NCCN(CC(=O)[*:2])[*:1]].I.I.Y.[Pen].N.R.[Dab].T.[NCC[C@@H](N[*:1])C(=O)[*:2]].K.C.[Dab].R.Y}$PEPTIDE1,PEPTIDE1,7:R3-14:R3$$$V2.0)	0
0.25	0.25	0.25	CC[C@H](C)[C@H](NC(=O)CN(CCN)C(=O)[C@@H](NC(=O)CNCCN)C(C)C)C(=O)N[C@H](C(=O)N[C@@H](Cc1ccc(O)cc1)C(=O)N[C@@H]1C(=O)N[C@@H](CC(N)=O)C(=O)N[C@@H](CCCNC(=N)N)C(=O)N[C@@H](CCN)C(=O)N[C@@H]([C@@H](C)O)C(=O)N[C@H](CCN)C(=O)N[C@@H](CCCCN)C(=O)N[C@H](C(=O)N[C@@H](CCN)C(=O)N[C@@H](CCCNC(=N)N)C(=O)N[C@@H](Cc2ccc(O)cc2)C(=O)O)CSSC1(C)C)[C@@H](C)CC [Example 29, Ndab-Val-Ndab-Ile-Ile-Tyr-Pen-Asn-Arg-Dab-Thr-^DDab-Lys-Cys-Dab-Arg-Tyr] (H-[Gly(N-2-aminoethyl)]V[Gly(N-2-aminoethyl)]IIY[Pen]NR[Dab]T[dDab]KC[Dab]RY-OH; disulfide 7-14)	0

The remaining lines, values behind:

Structure (SMILES)	Escherichia coli MCR-1 Af 45 MIC [1] [mg/L]	Escherichia coli ATCC 25922 MIC [2] [mg/L]	Klebsiella pneumoniae SSI3010 MIC [3] [mg/L]	Hemolysis at 0.2 g/L [4] [%]
CC[C@H](C)[C@H](NC(=O)[C@@H](NC(=O)[C@@H]1C[C@@H](N)CN1C(=O)[C@@H](NC(=O)[C@@H]1C[C@@H](N)CN1)C(C)C)[C@@H](C)CC)C(=O)N[C@@H](Cc1ccc(O)cc1)C(=O)N[C@@H]1C(=O)N[C@@H](CC(N)=O)C(=O)N[C@@H](CCCNC(=N)N)C(=O)N[C@@H](CCN)C(=O)N[C@@H]([C@@H](C)O)C(=O)N[C@H](CCN)C(=O)N[C@@H](CCCCN)C(=O)N[C@H](C(=O)N[C@@H](CCC(N)=O)C(=O)N[C@@H](CCCNC(=N)N)C(=O)N[C@@H](Cc2ccc(O)cc2)C(=O)O)CSSC1(C)C [Example 23, Pro((4R)NH2)-Val-Pro((4R)NH2)-Ile-Ile-Tyr-Pen-Asn-Arg-Dab-Thr-^DDab-Lys-Cys-Gln-Arg-Tyr] (H-[Pro(4R-NH2)]V[Pro(4R-NH2)]IIY[Pen]NR[Dab]T[dDab]KCQRY-OH; disulfide 7-14)	0.25	0.25	0.25	0
CC[C@H](C)[C@H](NC(=O)[C@@H](NC(=O)[C@@H]1CCCN1C(=O)[C@@H](NC(=O)[C@@H]1C[C@@H](N)CN1)C(C)C)[C@@H](C)CC)C(=O)N[C@@H](Cc1ccc(O)cc1)C(=O)N[C@@H]1C(=O)N[C@@H](CC(N)=O)C(=O)N[C@@H](CCCNC(=N)N)C(=O)N[C@@H](CCN)C(=O)N[C@@H]([C@@H](C)O)C(=O)N[C@H](CCN)C(=O)N[C@@H](CCCCN)C(=O)N[C@H](C(=O)N[C@@H](CCN)C(=O)N[C@@H](CCCNC(=N)N)C(=O)N[C@@H](Cc2ccc(O)cc2)C(=O)O)CSSC1(C)C [Example 24, Pro(4R)NH2)-Val-Pro-Ile-Ile-Tyr-Pen-Asn-Arg-Dab-Thr-^DDab-Lys-Cys-Dab-Arg-Tyr] (HELM PEPTIDE1{[N[C@H]1CN[C@H](C(=O)[*:2])C1].V.P.I.I.Y.[Pen].N.R.[Dab].T.[NCC[C@@H](N[*:1])C(=O)[*:2]].K.C.[Dab].R.Y}$PEPTIDE1,PEPTIDE1,7:R3-14:R3$$$V2.0)	0.125	0.125	0.25	0
CC[C@H](C)[C@H](NC(=O)[C@@H](NC(=O)[C@@H]1C[C@@H](N)CN1C(=O)[C@@H](NC(=O)[C@@H]1CCCN1)C(C)C)[C@@H](C)CC)C(=O)N[C@@H](Cc1ccc(O)cc1)C(=O)N[C@@H]1C(=O)N[C@@H](CC(N)=O)C(=O)N[C@@H](CCCNC(=N)N)C(=O)N[C@@H](CCN)C(=O)N[C@@H]([C@@H](C)O)C(=O)N[C@H](CCN)C(=O)N[C@@H](CCCCN)C(=O)N[C@H](C(=O)N[C@@H](CCN)C(=O)N[C@@H](CCCNC(=N)N)C(=O)N[C@@H](Cc2ccc(O)cc2)C(=O)O)CSSC1(C)C [Example 25, Pro-Val-Pro((4R)NH2)-Ile-Ile-Tyr-Pen-Asn-Arg-Dab-Thr-^DDab-Lys-Cys-Dab-Arg-Tyr] (HELM PEPTIDE1{P.V.[N[C@@H]1C[C@@H](C(=O)[*:2])N([*:1])C1].I.I.Y.[Pen].N.R.[Dab].T.[NCC[C@@H](N[*:1])C(=O)[*:2]].K.C.[Dab].R.Y}$PEPTIDE1,PEPTIDE1,7:R3-14:R3$$$V2.0)	≤0.03125	≤0.03125	0.0625	0
